Measured values as given in patent publication US20130079493A1, “Method for prepairing peptide inhibitors of a lipid-activated enzyme and peptides produced by same” (ESTAJA OY, priority 2010, published 2013).
Where no end group is shown, it is not given here.

What was measured:
[1] = biological target: T1, human phospholipase A2, content of tears (P14555) (Homo sapiens, UniProt P14555); assay: Activity of human tear phospholipase A2 towards C28-O-PHPM in the presence of peptide (pyrene monomer fluorescence); format: biochemical; conditions: 2 nM enzyme, 40 nM or 80 nM peptide; FIG. 2
T1 construct: Reaction mixture contained 2 nM of phospholipase of human tears; from tissue; host or cells: human tear fluid
T1 sequence (P14555 21-144): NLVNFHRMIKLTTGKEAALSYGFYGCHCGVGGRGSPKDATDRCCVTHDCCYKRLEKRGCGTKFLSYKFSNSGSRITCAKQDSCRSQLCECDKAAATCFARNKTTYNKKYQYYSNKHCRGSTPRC
Procedure: Activity of secretory phospholipase A2 (Apis mellifica) of class III towards C28—O—PHPM was measured in the presence of peptide KMYFNLI (SEQ ID NO:1). Reaction mixture contained 2 nM of phospholipase A2, 2 nM or 4 nM of the peptide and 1.25 μM C28—O—PHPM (1-octacosanyl-2-(6-pyren-1-yl)hexanoyl-sn-glycero-3-phosphatidylmethanol) in 2.0 ml of 5 mM HEPES, 0.1 mM EDTA, 1 mM CaCl2, pH 7.4 at 37° C. with stirring. The assay was performed with or without preincubation step. The enzymatic reaction was followed by measuring the pyrene monomer fluorescence intensity at 400 nm using a spectrofluorometer. Excitation wavelength was 343 nm and the excitation and emission slits were 10 nm.
Activity of human phospholipase A2, content of tears (P14555), was measured in the presence of peptide AALSYGFYG (SEQ ID NO:68). Reaction mixture contained 2 nM of phospholipase of human tears, 40 nM or 80 nM of the peptide and 1.25 μM C28—O—PHPM (1-octacosanyl-2-(6-pyren-1-yl)hexanoyl-sn-glycero-3-phosphatidylmethanol) in 2.0 ml of 5 mM HEPES, 0.1 mM EDTA, 1 mM CaCl2, pH 7.4 at 37° C. with stirring. The assay was performed with or without preincubation step. The enzymatic reaction was followed as described in Example 2.

[2] = biological target: secretory phospholipase A2 (Apis mellifica) of class III (Apis mellifera, UniProt P00630)
Chain of secretory phospholipase A2 (Apis mellifica) of class III (P00630 34-167 limits assumed): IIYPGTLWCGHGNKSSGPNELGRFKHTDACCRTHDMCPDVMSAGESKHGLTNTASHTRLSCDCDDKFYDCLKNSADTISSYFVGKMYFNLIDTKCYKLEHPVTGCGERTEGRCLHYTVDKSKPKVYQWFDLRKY

Substance	inhibition of tear fluid PLA2 activity [1]	inhibition of bee venom PLA2 enzyme [2]	peptide concentration at which inhibition was observed [2] [nM]
AALSYGFYG (not fully specified (C-terminus); listed as Homo sapiens) [synthetic peptide corresponding to residues 17-25 of human secretory PLA2 present in tear fluid]	inhibited		
KMYFNLI		complete inhibition	2
